Test results: patent publication US11306056B2 (Cardioxyl Pharmaceuticals, Inc., priority 2006, dated 2022)
Read-outs that look alike come from different tables or passages of the source.

Tests used:
[1] = test system: rat renal tissue; conditions: rat kidney, given during ischemia and 5 minutes before reperfusion; cited from earlier work
[2] = test system: ischemia/reperfusion injury; conditions: pre-ischemic administration; cited from earlier work
[3] = test system: myocardial ischemia/reperfusion injury; conditions: anesthetized rabbits, given during ischemia and 5 minutes prior to reperfusion; cited from earlier work
[4] = Decomposition kinetics (HNO release) monitored by UV-Vis spectroscopy; format: physicochemical; conditions: for half-life: pH 7.4, decomposition half-life, pH 7.4, 37° C., compounds 5, 7-10 not first-order, approximate half-lives; for kO2/kAr: ratio of oxygen-dependent to argon decomposition rate, 0.1 M PBS pH 7.4, 37° C.
Description: The decomposition rates of the compounds may be determined by UV-Vis spectroscopy.
The decomposition of compounds 1-4 and 6 from Example 1 was monitored by UV-Vis spectroscopy in 0.1 M PBS buffer at pH 7.4 and 37° C. The spectral behavior was isosbestic and the time course fit well to a single exponential. […] Decomposition kinetics for compounds 5, 7-10 of Example 1 are not first-order and thus only approximate half-lives are reported. Compounds with more than one number in a single column in the table below indicates the results of two experiments for the same compound.

[5] = aerated 0.1 M PBS buffer, aerated 0.1 M PBS buffer, read-out: t1/2 (air)
[6] = argon-saturated 0.1 M PBS buffer, argon-saturated 0.1 M PBS buffer, read-out: t1/2 (Ar)

| SMILES | half-life [4, 5] [min] | half-life [4, 6] [min] | kO2/kAr [4] | melting point | neutrophil infiltration into renal tissue [1] | effect on ischemia/reperfusion injury [2] | effect on myocardial ischemia/reperfusion injury [3] |
| --- | --- | --- | --- | --- | --- | --- | --- |
| [Na+].[Na+].[O-][N+]([O-])=NO [AS, sodium dioxotrinitrate] |  |  |  |  | contributed to neutrophil infiltration into the tissue | prevent or reduce ischemia/reperfusion injury | increased myocardial ischemia/reperfusion injury |
| O=S(=O)(NO)c1ccccc1C(F)(F)F [Compound 4, 2-(Trifluoromethyl)-N-hydroxybenzenesulfonamide] | 0.55 | 0.96 | 0.75 | 124 to 127 °C (dec.) |  |  |  |
| O=S(=O)(NO)c1ccc(F)cc1 [Compound 7, 4-Fluoro-N-hydroxybenzenesulfonamide] | 10 | 72.1 |  |  |  |  |  |
| O=S(=O)(NO)c1ccc(C(F)(F)F)cc1 [Compound 8, 4-(Trifluoromethyl)-N-hydroxybenzenesulfonamide] | 7 | 33 |  | 117 to 121 °C (dec.) |  |  |  |
| N#Cc1ccc(S(=O)(=O)NO)cc1 [Compound 9, 4-Cyano-N-hydroxybenzenesulfonamide] | 4 | 17.8 |  | 151 to 155 °C (dec.) |  |  |  |
| O=[N+]([O-])c1ccc(S(=O)(=O)NO)cc1 [Compound 10, 4-Nitro-N-hydroxybenzenesulfonamide] | 3.3 |  |  |  |  |  |  |
| CC(C)N[N+]([O-])=N[O-].[Na+] [isopropylamine/NO] |  |  |  |  |  | prevent or reduce ischemia/reperfusion injury |  |

More lines, main results first:

| half-life [4, 5] [min] | half-life [4, 6] [min] | kO2/kAr [4] | melting point | SMILES | neutrophil infiltration into renal tissue [1] | effect on ischemia/reperfusion injury [2] | effect on myocardial ischemia/reperfusion injury [3] |
| --- | --- | --- | --- | --- | --- | --- | --- |
| 2.67 | 17.5 | 5.82 | 127 to 129 °C | O=S(=O)(NO)c1ccccc1F [Compound 1, 2-Fluoro-N-hydroxybenzenesulfonamide] |  |  |  |
| 1.75 | 3.61 | 1.06 | 152 to 155 °C (dec.) | O=S(=O)(NO)c1ccccc1Cl [Compound 2, 2-Chloro-N-hydroxybenzenesulfonamide] |  |  |  |
| 0.68 | 1.05 | 0.55 | 156 to 159 °C (dec.) | O=S(=O)(NO)c1ccccc1Br [Compound 3, 2-Bromo-N-hydroxybenzenesulfonamide] |  |  |  |
|  |  | 2.52 |  | O=S(=O)(NO)c1cc(Cl)sc1Cl [Compound 6, 2,5-Dichlorothiophene-3-sulfohydroxamic acid] |  |  |  |
